Measurements reported in article PMC8035703, “Effect of Synchronous Versus Sequential Regimens on the Pharmacokinetics and Biodistribution of Regorafenib with Irradiation” (Pharmaceutics, 2021).
Several values for one entry are separate records, joined by “and”; a condition that tells them apart may be missing. Equal entries are not always repeated. Where two headings read alike, the source gives them in different places. Marks after values point to notes of the source that are not given here.

Experiments:
[1] = Pharmacokinetics of regorafenib in plasma of freely moving rats with or without RT (HPLC-UV); format: in vivo, Sprague-Dawley rats; conditions: for MRT / Tmax / half-life: plasma, po, 16 mg/kg; for half-life: read-out: t½
Method: The Institutional Animal Experimentation Committee of National Yang-Ming University, Taipei, Taiwan, and the Institutional Animal Care and Use Committee (IACUC, approval number 1070523) reviewed and approved the protocol. The Laboratory Animal Center at National Yang-Ming University (Taipei, Taiwan) provided adult male Sprague-Dawley rats (300 ± 20 g body weight). A pathogen-free environment with a 12 h light–dark cycle, with access to water ad libitum and food (laboratory rodent diet 5P14, PMI Feeds, Richmond, IN, USA), was provided for the animals.
A freely moving rat model was designed for the current study. The rats were anaesthetized and immobilized on a board, while undergoing computed tomography for localization of the whole liver or a central area 1.5 cm × 1.5 cm in size for the SBRT technique. For the whole liver field, the cranial margin was set 5 mm from the top of the diaphragm, and the caudal margin was set 5 mm lower than the liver margin. The whole liver was targeted for irradiation. The experimental animals were randomized to groups receiving sham RT, one or three fractions of RT2 Gy and RT9 Gy with current or sequential regorafenib. Data were collected from six rats in each group.
According to the formula used to translate doses from animal to human, human equivalent dose (HED, mg/kg) = animal dose (mg/kg) × animal km/human km, we calculated the daily dose of regorafenib for rats to be 16 (mg/kg/day). The rats were randomly divided into ten groups with six rats in each group. The concurrent groups treated with regorafenib 1 h after RT, in the same day, to mimic regorafenib concurrent with RT in the daily practice. The sequential groups treated with regorafenib following RT (not in the same day), to mimic RT followed by regorafenib in the daily practice. The one fraction study group included (A) a sham group, regorafenib with RT0 Gy (regorafenib × 1 d); concurrent groups treated with regorafenib 1 h after (B) RT2 Gy with 1 fraction (RT2 Gy × 1 f’x) and (D) RT9 Gy with 1 fraction (RT9 Gy × 1 f’x); and sequential groups treated with regorafenib 24 h after (C) RT2 Gy × 1 f’x and (E) RT9 Gy × 1 f’x. Continued treatment mimicking clinical practice was applied to (A) a sham group, regorafenib (p.o. (per os), q.d. × 3 d) with RT0 Gy (regorafenib × 3 d); concurrent groups treated with regorafenib (p.o., q.d. × 3 d) 1 h after (B) RT2 Gy with 3 fractions (RT2 Gy × 3 f’x) and (D) RT9 Gy with 3 fractions (RT9Gy × 3 f’x); and sequential groups treated with regorafenib 24 h (p.o., q.d. × 3 d) after (C) RT2 Gy × 3 f’x and (E) RT9 Gy × 3 f’x. (Figure 1A,B).
A 150 µL blood sample was withdrawn from the jugular vein with a fraction collector at 0.25, 0.5, 0.75, 1, 1.5, 2, 2.5, 3, 3.5 and 4 h, following drug administration. The samples were centrifuged for 10 min, at 4200× g. Then, 50 µL of the resulting plasma was vortexed with 1 mL of ethyl acetate and centrifuged at 5900× g. The upper layer was transferred to a new tube and evaporated to dryness.
The HPLC system included chromatographic pumps (LC-20AT; Shimadzu Co., Kyoto, Japan), an autosampler (SIL-20AC; Shimadzu Co., Kyoto, Japan) and a UV–Vis detector (SPDM20A; Shimadzu Co., Kyoto, Japan). A Waters Acquity C^18 column (50 × 2.1 mm, particle size 1.7 μm, Eclipse XDB, Agilent, Palo Alto, CA, USA) was used for sample analysis. The mobile phase consisted of potassium dihydrogen phosphate (10 mM, pH = 3) and acetonitrile (55:45, v/v). The flow rate was set to 0.2 mL/min, and the injection volume was 5 μL. The temperature in the autosampler was set to 40 °C. The UV–Vis detector scanned from 190 to 300 nm, and the chromatographic profiles were monitored at 265 nm for regorafenib and diethylstilbestrol (internal standard (IS)).
The process for sample extraction was as follows: 50 μL of rat plasma was mixed with internal standard (10 μL, IS, diethylstilbestrol) solution and methanol (140 μL) for protein precipitation. […]

[2] = Hepatic and renal functions (GPT, creatinine) in rats; format: in vivo, Sprague-Dawley rats; conditions: rat
Method: Glutamic-pyruvic transaminase (GPT) and […] were measured to check the influence of different modalities on hepatic function and renal function by a standard colorimetric method, using a Synchron LX20 spectrophotometer (Beckman Coulter) and manufacturer-supplied reagents.

[3] = male, Sprague-Dawley, rat, rat plasma, 16 mg/kg p.o. × 1 d, no RT
[4] = male, Sprague-Dawley, rat, rat plasma, 16 mg/kg p.o. × 3 d, no RT
[5] = male, Sprague-Dawley, rat, rat plasma, RT2 Gy × 1 f'x followed by regorafenib 16 mg/kg p.o. × 1 d (sequential)
[6] = male, Sprague-Dawley, rat, rat plasma, RT2 Gy × 1 f'x with regorafenib 16 mg/kg p.o. × 1 d (concurrent)
[7] = male, Sprague-Dawley, rat, rat plasma, RT2 Gy × 3 f'x followed by regorafenib 16 mg/kg p.o. × 3 d (sequential)
[8] = male, Sprague-Dawley, rat, rat plasma, RT2 Gy × 3 f'x with regorafenib 16 mg/kg p.o. × 3 d (concurrent)
[9] = male, Sprague-Dawley, rat, rat plasma, RT9 Gy × 1 f'x followed by regorafenib 16 mg/kg p.o. × 1 d (sequential)
[10] = male, Sprague-Dawley, rat, rat plasma, RT9 Gy × 1 f'x with regorafenib 16 mg/kg p.o. × 1 d (concurrent)
[11] = male, Sprague-Dawley, rat, rat plasma, RT9 Gy × 3 f'x followed by regorafenib 16 mg/kg p.o. × 3 d (sequential)
[12] = male, Sprague-Dawley, rat, rat plasma, RT9 Gy × 3 f'x with regorafenib 16 mg/kg p.o. × 3 d (concurrent)
[13] = rat plasma, 16 mg/kg p.o. × 1 d, no RT
[14] = rat plasma, 16 mg/kg p.o. × 3 d, no RT
[15] = rat plasma, RT2 Gy × 1 f'x followed by regorafenib 16 mg/kg p.o. × 1 d (sequential)
[16] = rat plasma, RT2 Gy × 1 f'x with regorafenib 16 mg/kg p.o. × 1 d (concurrent)
[17] = rat plasma, RT2 Gy × 3 f'x followed by regorafenib 16 mg/kg p.o. × 3 d (sequential)
[18] = rat plasma, RT2 Gy × 3 f'x with regorafenib 16 mg/kg p.o. × 3 d (concurrent)
[19] = rat plasma, RT9 Gy × 1 f'x followed by regorafenib 16 mg/kg p.o. × 1 d (sequential)
[20] = rat plasma, RT9 Gy × 1 f'x with regorafenib 16 mg/kg p.o. × 1 d (concurrent)
[21] = rat plasma, RT9 Gy × 3 f'x followed by regorafenib 16 mg/kg p.o. × 3 d (sequential)
[22] = rat plasma, RT9 Gy × 3 f'x with regorafenib 16 mg/kg p.o. × 3 d (concurrent)

Decrease of plasma AUCregorafenib ([1]; concurrent RT2 Gy × 1 f'x vs sham RT (regorafenib × 1 d), rat): 33.0%
Decrease of plasma AUCregorafenib ([1]; concurrent RT2 Gy × 3 f'x vs regorafenib × 3 d, rat): 74%
Decrease of plasma AUCregorafenib ([1]; concurrent RT9 Gy × 3 f'x vs regorafenib × 3 d, rat): 69% and 69.4%
concentration at 180 min ([1]; male, Sprague-Dawley, oral, rat plasma collected 180 min after regorafenib 16 mg/kg p.o. alone): 1500 ng/mL
MRT [1, 3]: 24.7 h
Tmax [1, 3]: 3.17 h
half-life [1, 3]: 15.7 ± 8.92 h
MRT [1, 4]: 13.7 h
Tmax [1, 4]: 1.5 h
half-life [1, 4]: 9.17 ± 2.43 h
MRT [1, 5]: 9.22 h
Tmax [1, 5]: 3 h
half-life [1, 5]: 5.77 ± 1.55 h
MRT [1, 6]: 10.8 h
Tmax [1, 6]: 2.75 h
half-life [1, 6]: 6.82 ± 2.5 h
MRT [1, 7]: 22.8 h
Tmax [1, 7]: 1.67 h
half-life [1, 7]: 15.3 ± 15.9 h
MRT [1, 8]: 9.73 h
Tmax [1, 8]: 2.08 h
half-life [1, 8]: 6.2 ± 2.53 h
MRT [1, 9]: 15.6 h
Tmax [1, 9]: 2.58 h
half-life [1, 9]: 10.1 ± 3.5 h
MRT [1, 10]: 16.3 h
Tmax [1, 10]: 2.58 h
half-life [1, 10]: 10.9 ± 7.42 h
MRT [1, 11]: 14.3 h
Tmax [1, 11]: 1.83 h
half-life [1, 11]: 9.52 ± 5.38 h
MRT [1, 12]: 16.4 h
Tmax [1, 12]: 1.63 h
half-life [1, 12]: 11 ± 9.97 h
Decrease of regorafenib levels (AUC) by a single fraction of RT, concurrent regimen ([1]; off-target or SBRT dose, × 1 f'x, concurrent, rat): ~35%
AUCregorafenib, sequential RT2 Gy × 3 f'x relative to concurrent RT2 Gy × 3 f'x ([1]; rat plasma): 2.0 fold
Cl [1, 13]: 8.18 ± 3.06 mL/min/kg
Vss [1, 13]: 12641.9 ± 6928.9 mL/kg
Cl [1, 14]: 4.21 ± 1.82 mL/min/kg
Vss [1, 14]: 3604.5 ± 951.1 mL/kg
Cl [1, 15]: 6.19 ± 0.35 mL/min/kg
Vss [1, 15]: 3081.4 ± 773.1 mL/kg
Cl [1, 16]: 16.6 ± 7.21 mL/min/kg
Vss [1, 16]: 21606.9 ± 20731.8 mL/kg
Cl [1, 17]: 8.56 ± 7.21 mL/min/kg
Vss [1, 17]: 4156.0 ± 1959.9 mL/kg
Cl [1, 18]: 23.20 ± 9.45 ^n mL/min/kg
Vss [1, 18]: 12759.6 ± 8467.4 ^p mL/kg
Cl [1, 19]: 3.3 ± 4.3 mL/min/kg
Vss [1, 19]: 2898.8 ± 4123.7 mL/kg
Cl [1, 20]: 34.6 ± 25.3 mL/min/kg
Vss [1, 20]: 30999.0 ± 34618.0 mL/kg
Cl [1, 21]: 11.4 ± 4.5 mL/min/kg
Vss [1, 21]: 7960.3 ± 3023.5 ^r mL/kg
Cl [1, 22]: 19.0 ± 11.7 ^o mL/min/kg
Vss [1, 22]: 11564.4 ± 3361.0 ^q mL/kg
Increase of plasma AUCregorafenib ([1]; sequential RT2 Gy × 1 f'x vs regorafenib × 1 d, rat): 182.8%
Decrease of plasma AUCregorafenib ([1]; sequential RT2 Gy × 3 f'x vs regorafenib × 3 d, rat): 20.7%
Increase of plasma AUCregorafenib ([1]; sequential RT9 Gy × 1 f'x vs regorafenib × 1 d, rat): 213.2%
Decrease of plasma AUCregorafenib ([1]; sequential RT9 Gy × 3 f'x vs regorafenib × 3 d, rat): 45.8%
Creatinine at 240 min ([2]; concurrent RT2 Gy × 1 f'x): 0.25 ± 0.06 mg/dL
Glutamate pyruvate transaminase at 240 min ([2]; concurrent RT2 Gy × 1 f'x): 31.8 ± 5.3 UI
Creatinine at 240 min ([2]; concurrent RT9 Gy × 1 f'x): 0.21 ± 0.02 mg/dL
Glutamate pyruvate transaminase at 240 min ([2]; concurrent RT9 Gy × 1 f'x): 33.5 ± 8.8 UI
Glutamate pyruvate transaminase and creatinine, regorafenib with vs without RT ([2]; different regimens and doses): no significant differences
Creatinine at 240 min ([2]; regorafenib-only): 0.23 ± 0.04 mg/dL
Glutamate pyruvate transaminase at 240 min ([2]; regorafenib-only): 36.3 ± 15.0 UI
Creatinine at 240 min ([2]; sequential RT2 Gy × 1 f'x): 0.22 ± 0.04 mg/dL
Glutamate pyruvate transaminase at 240 min ([2]; sequential RT2 Gy × 1 f'x): 30.5 ± 6.0 UI
Creatinine at 240 min ([2]; sequential RT9 Gy × 1 f'x): 0.25 ± 0.04 mg/dL
Glutamate pyruvate transaminase at 240 min ([2]; sequential RT9 Gy × 1 f'x): 33.7 ± 5.2 UI
Structure (SMILES): CNC(=O)c1cc(Oc2ccc(NC(=O)Nc3ccc(Cl)c(C(F)(F)F)c3)c(F)c2)ccn1 [regorafenib, Regorafenib]
